Here are results for ten compounds from patent US10004701B2, “Methods and compositions for treating infection” (UNIVERSITY OF ROCHESTER, priority 2012, dated 2018).

Holding throughout (assay): AK assay 384-well format, Prestwick library screening
One experiment relates to P. aeruginosa. Type of experiment: cell-based, Pseudomonas aeruginosa. The following applies: 50 μM final drug concentration; for fold induction at 50 µM: Pseudomonas aeruginosa, 3 h.
For experiment [1], the system named is S. aureus strain USA300-0114. Type of experiment: cell-based, Staphylococcus aureus. The following applies: 50 μM final drug concentration; for fold induction at 50 µM: Staphylococcus aureus, USA300, 3 h.
The next experiment has as its system E. cloacae. The class given is cell-based, Enterobacter cloacae. The following applies: 50 μM final drug concentration; for fold induction at 50 µM: Enterobacter cloacae, 3 h.
In a further experiment the test system is E. faecium. The class given is cell-based, Enterococcus faecium. The following applies: 50 μM final drug concentration; for fold induction at 50 µM: Enterococcus faecium, 3 h.
Experiment [2] relates to A. baumannii strain 98-37-09. The class given is cell-based, Acinetobacter baumannii. The following applies: 50 μM final drug concentration; for fold induction at 50 µM: Acinetobacter baumannii, 983709, 3 h.
Another experiment relates to K. pneumoniae. Type of experiment: cell-based, Klebsiella pneumoniae. The following applies: 50 μM final drug concentration; for fold induction at 50 µM: Klebsiella pneumoniae, 3 h.
A further experiment relates to E. coli. The class given is cell-based, Escherichia coli. The following applies: 50 μM final drug concentration; for fold induction at 50 µM: Escherichia coli, 3 h.
The mark [3] stands for this setting: 384-well format, cutoff for positive-scoring molecules 3-fold increase, read-out: AK-based Prestwick Library Screening Results, P. aeruginosa (increase in extracellular AK activity).
Where [4] appears, read: 384-well format, cutoff for positive-scoring molecules 3-fold increase, read-out: AK-based Prestwick Library Screening Results, S. aureus (increase in extracellular AK activity).
Setting [5] is: 384-well format, cutoff for positive-scoring molecules 3-fold increase, read-out: AK-based Prestwick Library Screening Results, E. cloacae (increase in extracellular AK activity).
Where [6] appears, read: 384-well format, cutoff for positive-scoring molecules 3-fold increase, read-out: AK-based Prestwick Library Screening Results, E. faecium (increase in extracellular AK activity).
[7] abbreviates: 384-well format, cutoff for positive-scoring molecules 3-fold increase, read-out: AK-based Prestwick Library Screening Results, A. baumannii (increase in extracellular AK activity).
Setting [8] is: 384-well format, cutoff for positive-scoring molecules 3-fold increase, read-out: AK-based Prestwick Library Screening Results, K. pneumoniae (increase in extracellular AK activity).
The mark [9] stands for this setting: 384-well format, cutoff for positive-scoring molecules 3-fold increase, read-out: AK-based Prestwick Library Screening Results, E. coli (increase in extracellular AK activity).
Where [10] appears, read: planktonic, cutoff for positive-scoring molecules 3-fold increase, read-out: AK-based Prestwick Library Screening Results, P. aeruginosa (fold increase in extracellular AK activity).
The mark [11] stands for this setting: planktonic, cutoff for positive-scoring molecules 3-fold increase, read-out: AK-based Prestwick Library Screening Results, S. aureus (fold increase in extracellular AK activity).
The mark [12] stands for this setting: planktonic, cutoff for positive-scoring molecules 3-fold increase, read-out: AK-based Prestwick Library Screening Results, E. cloacae (fold increase in extracellular AK activity).
Where [13] appears, read: planktonic, cutoff for positive-scoring molecules 3-fold increase, read-out: AK-based Prestwick Library Screening Results, E. faecium (fold increase in extracellular AK activity).
Setting [14] is: planktonic, cutoff for positive-scoring molecules 3-fold increase, read-out: AK-based Prestwick Library Screening Results, A. baumannii (fold increase in extracellular AK activity).
[15] abbreviates: planktonic, cutoff for positive-scoring molecules 3-fold increase, read-out: AK-based Prestwick Library Screening Results, K. pneumoniae (fold increase in extracellular AK activity).
The mark [16] stands for this setting: planktonic, cutoff for positive-scoring molecules 3-fold increase, read-out: AK-based Prestwick Library Screening Results, E. coli (fold increase in extracellular AK activity).
[17] abbreviates: cutoff for positive-scoring molecules 3-fold increase, read-out: AK-based Prestwick Library Screening Results, P. aeruginosa (fold increase in extracellular AK activity).
Where [18] appears, read: cutoff for positive-scoring molecules 3-fold increase, read-out: AK-based Prestwick Library Screening Results, S. aureus (fold increase in extracellular AK activity).
Setting [19] is: cutoff for positive-scoring molecules 3-fold increase, read-out: AK-based Prestwick Library Screening Results, E. cloacae (fold increase in extracellular AK activity).
Where [20] appears, read: cutoff for positive-scoring molecules 3-fold increase, read-out: AK-based Prestwick Library Screening Results, E. faecium (fold increase in extracellular AK activity).
[21] abbreviates: cutoff for positive-scoring molecules 3-fold increase, read-out: AK-based Prestwick Library Screening Results, A. baumannii (fold increase in extracellular AK activity).
Setting [22] is: cutoff for positive-scoring molecules 3-fold increase, read-out: AK-based Prestwick Library Screening Results, K. pneumoniae (fold increase in extracellular AK activity).
The mark [23] stands for this setting: cutoff for positive-scoring molecules 3-fold increase, read-out: AK-based Prestwick Library Screening Results, E. coli (fold increase in extracellular AK activity).
Setting [24] is: planktonic, cutoff for positive 3-fold increase.

Counter-ions that a name gives are not always drawn. Like-named read-outs stand apart in the source and are kept apart here.

Regarding `COc1ccc(OC)c(C(O)CNC(=O)CN)c1` (stereo not shown) [Midodrine hydrochloride], the fold induction at 50 µM is 0.9 with P. aeruginosa (setting [3]); 0.9 in experiment [1] (setting [4]); 1 in the experiment on E. cloacae (setting [5]); 1 with E. faecium (setting [6]); 0.9 in experiment [2] (setting [7]); 0.7 with K. pneumoniae (setting [8]). Further, the fold induction at 50 µM with E. coli (setting [9]) was 1.
As to `CN(C)C(=O)C(CCN1CCC(O)(c2ccc(Cl)cc2)CC1)(c1ccccc1)c1ccccc1` [Loperamide hydrochloride], the fold induction at 50 µM with P. aeruginosa (planktonic P. aeruginosa, 384-well, […], read-out: AK-based Prestwick Library Screening Results: P. aeruginosa (increase in extracellular AK activity)) amounted to 1.2; in experiment [1] (planktonic S. aureus, 384-well, […], read-out: AK-based Prestwick Library Screening Results: S. aureus (increase in extracellular AK activity)), 1; in the experiment with E. cloacae (planktonic E. cloacae, 384-well, […], read-out: AK-based Prestwick Library Screening Results: E. cloacae (increase in extracellular AK activity)), 1.5; in the experiment with E. faecium (planktonic E. faecium, 384-well, […], read-out: AK-based Prestwick Library Screening Results: E. faecium (increase in extracellular AK activity)), 0.9; in experiment [2] (planktonic A. baumannii, 384-well, […], read-out: AK-based Prestwick Library Screening Results: A. baumannii (increase in extracellular AK activity)) it was 1.5; in the experiment on K. pneumoniae (planktonic K. pneumoniae, 384-well, […], read-out: AK-based Prestwick Library Screening Results: K. pneumoniae (increase in extracellular AK activity)), 0.9. Moreover, the fold induction at 50 µM in the experiment with E. coli (planktonic E. coli, 384-well, […], read-out: AK-based Prestwick Library Screening Results: E. coli (increase in extracellular AK activity)) came to 1.4.
Consider `COc1ccc2c3c([nH]c2c1)[C@H]1C[C@H]2[C@H](C[C@@H](O)[C@H](OC)[C@H]2C(=O)O)CN1CC3.Cl` [Reserpinic acid hydrochloride], for which the “AK-based Prestwick library screening result, P. aeruginosa (fold increase in extracellular AK activity)” value with P. aeruginosa (planktonic P. aeruginosa, positive cutoff 3-fold increase) is recorded as 0.8. In addition, the “AK-based Prestwick library screening result, S. aureus (fold increase in extracellular AK activity)” value in experiment [1] (planktonic S. aureus, positive cutoff 3-fold increase) was determined as 0.6. Further, the “AK-based Prestwick library screening result, E. cloacae (fold increase in extracellular AK activity)” value with E. cloacae (planktonic E. cloacae, positive cutoff 3-fold increase) was found to be 1.0. Further, the “AK-based Prestwick library screening result, E. faecium (fold increase in extracellular AK activity)” value with E. faecium (planktonic E. faecium, positive cutoff 3-fold increase) was 0.9. The “AK-based Prestwick library screening result, A. baumannii (fold increase in extracellular AK activity)” value in experiment [2] (planktonic A. baumannii, positive cutoff 3-fold increase) was found to be 0.8. The “AK-based Prestwick library screening result, K. pneumoniae (fold increase in extracellular AK activity)” value in the experiment with K. pneumoniae (planktonic K. pneumoniae, positive cutoff 3-fold increase) is 0.7. The “AK-based Prestwick library screening result, E. coli (fold increase in extracellular AK activity)” value with E. coli (planktonic E. coli, […]) stood at 0.9.
`NC(=O)c1cc[n+](CC2=C(C(=O)O)N3C(=O)[C@@H](NC(=O)[C@@H](c4ccccc4)S(=O)(=O)[O-])[C@H]3SC2)cc1` [Cefsulodin sodium salt]: the fold induction at 50 µM with P. aeruginosa (setting [10]) is 8.6; in experiment [1] (setting [11]) it was 1; in the experiment on E. cloacae (setting [12]) it was 0.9; in the experiment with E. faecium (setting [13]), 0.9; in experiment [2] (setting [14]), 1.1; in the experiment with K. pneumoniae (setting [15]) it was 0.7. Moreover, the fold induction at 50 µM in the experiment on E. coli (setting [16]) is 0.9.
`CCCCOc1ccc(OCCCN2CCOCC2)cc1` [Pramoxine hydrochloride]: the fold induction at 50 µM in the experiment with P. aeruginosa (setting [17]) was 1.2; in experiment [1] (setting [18]), 1.3; in the experiment with E. cloacae (setting [19]) it was 1.5; in the experiment with E. faecium (setting [20]), 1; in experiment [2] (setting [21]), 1.1; with K. pneumoniae (setting [22]) it was 1.1. Also, in the experiment on E. coli (setting [23]), the fold induction at 50 µM came to 1.1.
Consider `Nc1ccc(S(=O)(=O)Nc2nccs2)cc1` [Sulfathiazole], for which the fold induction at 50 µM in the experiment with P. aeruginosa (setting [3]) stood at 0.6; in experiment [1] (setting [4]), 0.6; with E. cloacae (setting [5]) it was 0.7; in the experiment with E. faecium (setting [6]), 0.9; in experiment [2] (setting [7]), 1; in the experiment with K. pneumoniae (setting [8]), 0.6. In addition, the fold induction at 50 µM in the experiment on E. coli (setting [9]) is 0.7.
Regarding `Cl.NCC(O)c1ccc(O)cc1` (racemic) [(+,−)-Octopamine hydrochloride], in the experiment on P. aeruginosa ([…]), the “AK-based Prestwick Library Screening Results, P. aeruginosa (fold increase in extracellular AK activity)” value was determined as 1.0. The “AK-based Prestwick Library Screening Results, S. aureus (fold increase in extracellular AK activity)” value in experiment [1] ([…]) is reported as 1.3. The “AK-based Prestwick Library Screening Results, E. cloacae (fold increase in extracellular AK activity)” value with E. cloacae ([…]) was 1.4. Moreover, the “AK-based Prestwick Library Screening Results, E. faecium (fold increase in extracellular AK activity)” value with E. faecium ([…]) is 1.0. The “AK-based Prestwick Library Screening Results, A. baumannii (fold increase in extracellular AK activity)” value in experiment [2] ([…]) is 1.3. The “AK-based Prestwick Library Screening Results, K. pneumoniae (fold increase in extracellular AK activity)” value in the experiment on K. pneumoniae ([…]) stood at 1.1. Also, in the experiment on E. coli ([…]), the “AK-based Prestwick Library Screening Results, E. coli (fold increase in extracellular AK activity)” value is listed as 1.3.
With `COc1cc(NS(=O)(=O)c2ccc(N)cc2)nc(OC)n1` [Sulfadimethoxine], the fold induction at 50 µM in the experiment with P. aeruginosa (setting [10]) is 0.4; in experiment [1] (setting [11]) it was 0.5; with E. cloacae (setting [12]) it was 0.4; in the experiment with E. faecium (setting [13]), 0.9; in experiment [2] (setting [14]) it was 0.9; in the experiment with K. pneumoniae (setting [15]), 0.5. In the experiment with E. coli (setting [16]), the fold induction at 50 µM amounted to 0.6.
Turning to `NC[C@H]1O[C@H](O[C@H]2[C@H](O)[C@@H](O[C@H]3O[C@H](CO)[C@@H](O)[C@H](N)[C@H]3O)[C@H](N)C[C@@H]2N)[C@H](O)[C@@H](O)[C@@H]1O.O=S(=O)(O)O` [Kanamycin A sulfate], the “AK-based Prestwick Library Screening Results, P. aeruginosa (fold increase in extracellular AK activity)” value in the experiment on P. aeruginosa (setting [24]) was determined as 1.0. Further, the “AK-based Prestwick Library Screening Results, S. aureus (fold increase in extracellular AK activity)” value in experiment [1] (setting [24]) is recorded as 2.5. Besides, the “AK-based Prestwick Library Screening Results, E. cloacae (fold increase in extracellular AK activity)” value with E. cloacae (setting [24]) is given as 1.9. Further, the “AK-based Prestwick Library Screening Results, E. faecium (fold increase in extracellular AK activity)” value in the experiment on E. faecium (setting [24]) came to 0.9. In experiment [2] (setting [24]), the “AK-based Prestwick Library Screening Results, A. baumannii (fold increase in extracellular AK activity)” value came to 1.1. Besides, the “AK-based Prestwick Library Screening Results, K. pneumoniae (fold increase in extracellular AK activity)” value with K. pneumoniae (setting [24]) is listed as 1.0. The “AK-based Prestwick Library Screening Results, E. coli (fold increase in extracellular AK activity)” value in the experiment on E. coli (setting [24]) was found to be 1.2.
With `Nc1[nH]c(=O)ncc1F` [Flucytosine], the fold induction at 50 µM in the experiment with P. aeruginosa (setting [17]) came out at 1.1; in experiment [1] (setting [18]), 1.1; in the experiment with E. cloacae (setting [19]) it was 1.8; in the experiment on E. faecium (setting [20]), 0.9; in experiment [2] (setting [21]) it was 1.2; with K. pneumoniae (setting [22]) it was 0.8. Besides, in the experiment with E. coli (setting [23]), the fold induction at 50 µM worked out at 1.1.
